According to ChEMBL document CHEMBL1201862, “PubChem BioAssay data set” (2004):
The source made the active and inactive calls.

Assays:
[1] = non-specific 3'UTR reporter inhibition in Clone20-Shn3RL – cell-based, Renilla luciferase, cherry-picked, counter-screen for Shn3 inhibitor project, dose response (AID 624133); type: functional
[2] = Shn3 3'UTR reporter signal decrease – cell-based, Clone20 osteoblasts, firefly luciferase, cherry-pick, set 2, Schnurri-3 inhibitor project, dose response (AID 720490); type: functional;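 note: actives lower the luminescence signal as inhibitors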
[3] = reduction of Shn3 3'UTR-driven luciferase in osteoblasts – cell-based, Clone20 osteoblasts, firefly luciferase, cherry-picked, dose response (AID 624132); type: functional;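 note: firefly luciferase luminescence from reporter carrying the Shn3 3'UTR in osteoblasts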
[4] = molecular target: T1, fMet-Leu-Phe receptor (Homo sapiens, UniProt P21462); experiment: formyl peptide receptor binders – dose response (AID 519); type: functional
T1 sequence (P21462 whole entry): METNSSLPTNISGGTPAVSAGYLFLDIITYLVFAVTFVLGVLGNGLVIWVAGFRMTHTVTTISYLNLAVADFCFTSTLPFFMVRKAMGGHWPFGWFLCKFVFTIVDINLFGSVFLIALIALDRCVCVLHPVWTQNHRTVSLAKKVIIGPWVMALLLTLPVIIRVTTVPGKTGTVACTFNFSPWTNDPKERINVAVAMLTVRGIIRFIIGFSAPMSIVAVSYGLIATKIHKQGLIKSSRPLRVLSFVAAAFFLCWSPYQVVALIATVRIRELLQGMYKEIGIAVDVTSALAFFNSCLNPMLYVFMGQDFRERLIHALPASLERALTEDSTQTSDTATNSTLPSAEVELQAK

[5] = molecular target: Peroxisome proliferator-activated receptor gamma/Nuclear receptor coactivator 1 (Homo sapiens, UniProt P37231); experiment: (§1) TR-FRET dose response biochemical High Throughput Screening assay for agonists of the steroid receptor coactivator 1 (SRC-1) recruitment by the peroxisome proliferator-activated receptor gamma (PPAR gamma): non-selective agonists. [Related pubchem assays (depositor defined):AID1300, AID1808, AID504735, AID631]; type: protein assay
Peroxisome proliferator-activated receptor gamma/Nuclear receptor coactivator 1, sequence (P37231 whole entry): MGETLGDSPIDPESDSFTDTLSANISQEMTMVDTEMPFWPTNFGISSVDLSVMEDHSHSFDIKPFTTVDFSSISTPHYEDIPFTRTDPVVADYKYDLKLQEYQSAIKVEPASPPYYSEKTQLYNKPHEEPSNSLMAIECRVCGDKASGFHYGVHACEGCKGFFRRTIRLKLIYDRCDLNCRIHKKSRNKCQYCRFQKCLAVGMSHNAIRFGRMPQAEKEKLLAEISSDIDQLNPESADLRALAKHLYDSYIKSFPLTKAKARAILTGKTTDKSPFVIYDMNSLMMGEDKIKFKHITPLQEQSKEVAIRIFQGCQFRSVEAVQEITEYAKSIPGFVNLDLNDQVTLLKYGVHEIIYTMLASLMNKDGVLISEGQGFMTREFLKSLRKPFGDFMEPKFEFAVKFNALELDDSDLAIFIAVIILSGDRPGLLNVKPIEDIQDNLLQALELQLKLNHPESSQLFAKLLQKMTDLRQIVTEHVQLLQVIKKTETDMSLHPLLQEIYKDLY
Peroxisome proliferator-activated receptor gamma/Nuclear receptor coactivator 1, sequence (Q15788 whole entry, further chain): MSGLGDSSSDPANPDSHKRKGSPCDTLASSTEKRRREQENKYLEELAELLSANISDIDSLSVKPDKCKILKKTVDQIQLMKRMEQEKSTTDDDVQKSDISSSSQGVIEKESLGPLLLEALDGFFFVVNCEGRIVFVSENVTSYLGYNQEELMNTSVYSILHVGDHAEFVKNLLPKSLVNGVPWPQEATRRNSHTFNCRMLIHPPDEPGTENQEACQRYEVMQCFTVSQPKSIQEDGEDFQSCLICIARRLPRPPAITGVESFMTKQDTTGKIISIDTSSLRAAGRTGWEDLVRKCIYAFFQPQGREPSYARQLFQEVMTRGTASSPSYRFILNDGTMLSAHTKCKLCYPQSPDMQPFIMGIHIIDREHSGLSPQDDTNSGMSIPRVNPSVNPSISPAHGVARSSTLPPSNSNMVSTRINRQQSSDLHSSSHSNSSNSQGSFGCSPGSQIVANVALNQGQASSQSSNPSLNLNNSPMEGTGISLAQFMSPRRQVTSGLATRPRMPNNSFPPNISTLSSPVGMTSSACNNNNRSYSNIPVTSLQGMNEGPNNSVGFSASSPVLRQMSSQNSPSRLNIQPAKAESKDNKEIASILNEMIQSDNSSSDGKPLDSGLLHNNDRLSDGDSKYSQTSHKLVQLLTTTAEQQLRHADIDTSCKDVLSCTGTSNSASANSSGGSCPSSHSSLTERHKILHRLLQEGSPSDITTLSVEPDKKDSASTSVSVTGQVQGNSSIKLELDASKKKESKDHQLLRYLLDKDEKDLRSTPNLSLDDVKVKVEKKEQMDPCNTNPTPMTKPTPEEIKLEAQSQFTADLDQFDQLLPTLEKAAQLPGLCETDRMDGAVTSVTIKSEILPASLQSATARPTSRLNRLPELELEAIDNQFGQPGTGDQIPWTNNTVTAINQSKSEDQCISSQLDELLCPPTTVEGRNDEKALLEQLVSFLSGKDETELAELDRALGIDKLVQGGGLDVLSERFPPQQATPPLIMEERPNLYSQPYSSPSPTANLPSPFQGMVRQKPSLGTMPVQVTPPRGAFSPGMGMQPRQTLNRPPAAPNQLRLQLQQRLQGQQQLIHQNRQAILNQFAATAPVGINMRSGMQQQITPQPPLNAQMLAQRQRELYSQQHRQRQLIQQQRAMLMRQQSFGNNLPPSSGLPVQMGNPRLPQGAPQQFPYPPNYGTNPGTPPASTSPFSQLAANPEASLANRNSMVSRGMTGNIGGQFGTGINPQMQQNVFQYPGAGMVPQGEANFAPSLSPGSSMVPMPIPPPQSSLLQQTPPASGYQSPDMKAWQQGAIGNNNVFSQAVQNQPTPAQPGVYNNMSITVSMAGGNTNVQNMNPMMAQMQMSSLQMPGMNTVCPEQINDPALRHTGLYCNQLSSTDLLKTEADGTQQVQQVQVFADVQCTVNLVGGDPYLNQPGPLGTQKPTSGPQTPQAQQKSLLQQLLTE

[6] = molecular target: Peroxisome proliferator-activated receptor gamma/Nuclear receptor coactivator 3 (Homo sapiens, UniProt P37231); experiment: as §1, with “3 (SRC-3)” for “1 (SRC-1)”, “assays: 1301 (Confirmation screen.), 1048 (Primary screen.)]” for “assays (depositor defined):AID1300, AID1808, AID504735, AID631]”; type: functional
[7] = molecular target: Peroxisome proliferator-activated receptor gamma/Nuclear receptor coactivator 2 (Homo sapiens, UniProt P37231); experiment: TR-FRET dose response biochemical High Throughput Screening assay for agonists of the steroid receptor coactivator 2 (SRC-2) recruitment by the peroxisome proliferator-activated receptor gamma (PPAR gamma): non-selective agonists. [Related pubchem assays: 1297, 1032 ]; type: functional
Peroxisome proliferator-activated receptor gamma/Nuclear receptor coactivator 2, sequence (P37231 whole entry): as the sequence (P37231 whole entry) above
Peroxisome proliferator-activated receptor gamma/Nuclear receptor coactivator 2, sequence (Q15596 whole entry, further chain): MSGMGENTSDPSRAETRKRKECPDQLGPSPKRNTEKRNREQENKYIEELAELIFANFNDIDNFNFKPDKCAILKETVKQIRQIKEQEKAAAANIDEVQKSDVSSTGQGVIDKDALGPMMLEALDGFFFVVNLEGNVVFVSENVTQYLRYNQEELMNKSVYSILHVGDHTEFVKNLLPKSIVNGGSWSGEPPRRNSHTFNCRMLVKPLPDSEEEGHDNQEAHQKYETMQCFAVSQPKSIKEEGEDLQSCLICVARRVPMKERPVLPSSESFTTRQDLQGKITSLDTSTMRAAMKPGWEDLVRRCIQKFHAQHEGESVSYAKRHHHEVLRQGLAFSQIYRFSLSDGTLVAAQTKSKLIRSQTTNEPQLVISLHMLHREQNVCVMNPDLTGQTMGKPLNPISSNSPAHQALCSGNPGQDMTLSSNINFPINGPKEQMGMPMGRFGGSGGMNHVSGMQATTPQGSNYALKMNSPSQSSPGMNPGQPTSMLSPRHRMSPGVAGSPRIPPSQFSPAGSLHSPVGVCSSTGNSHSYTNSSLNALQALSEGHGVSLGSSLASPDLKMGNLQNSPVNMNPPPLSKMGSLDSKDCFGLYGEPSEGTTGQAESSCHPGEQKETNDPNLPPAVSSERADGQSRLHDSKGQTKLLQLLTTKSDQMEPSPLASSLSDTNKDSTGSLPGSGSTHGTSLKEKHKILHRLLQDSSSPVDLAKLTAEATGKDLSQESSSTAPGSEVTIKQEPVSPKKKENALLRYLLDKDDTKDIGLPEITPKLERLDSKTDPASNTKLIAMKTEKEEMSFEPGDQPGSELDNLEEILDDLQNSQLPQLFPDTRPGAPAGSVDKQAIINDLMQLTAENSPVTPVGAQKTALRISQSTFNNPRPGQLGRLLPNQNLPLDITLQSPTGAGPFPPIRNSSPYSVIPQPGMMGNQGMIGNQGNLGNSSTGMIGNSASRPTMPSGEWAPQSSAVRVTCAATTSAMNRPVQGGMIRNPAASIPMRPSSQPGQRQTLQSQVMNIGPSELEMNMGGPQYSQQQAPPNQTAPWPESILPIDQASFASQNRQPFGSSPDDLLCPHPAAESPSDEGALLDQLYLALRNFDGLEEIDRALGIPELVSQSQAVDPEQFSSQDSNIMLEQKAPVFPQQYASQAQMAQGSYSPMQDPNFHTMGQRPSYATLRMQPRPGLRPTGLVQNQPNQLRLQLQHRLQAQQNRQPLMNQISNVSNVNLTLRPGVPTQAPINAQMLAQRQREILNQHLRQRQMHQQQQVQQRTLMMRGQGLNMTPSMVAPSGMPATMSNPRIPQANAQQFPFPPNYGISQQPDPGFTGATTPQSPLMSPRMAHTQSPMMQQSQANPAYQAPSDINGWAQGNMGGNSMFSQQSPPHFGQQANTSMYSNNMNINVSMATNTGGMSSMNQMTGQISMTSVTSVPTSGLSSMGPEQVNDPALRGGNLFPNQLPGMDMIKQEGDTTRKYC

[8] = molecular target: T2, Protein skinhead-1 (Caenorhabditis elegans, UniProt P34707); type: functional
T2 sequence (P34707 whole entry): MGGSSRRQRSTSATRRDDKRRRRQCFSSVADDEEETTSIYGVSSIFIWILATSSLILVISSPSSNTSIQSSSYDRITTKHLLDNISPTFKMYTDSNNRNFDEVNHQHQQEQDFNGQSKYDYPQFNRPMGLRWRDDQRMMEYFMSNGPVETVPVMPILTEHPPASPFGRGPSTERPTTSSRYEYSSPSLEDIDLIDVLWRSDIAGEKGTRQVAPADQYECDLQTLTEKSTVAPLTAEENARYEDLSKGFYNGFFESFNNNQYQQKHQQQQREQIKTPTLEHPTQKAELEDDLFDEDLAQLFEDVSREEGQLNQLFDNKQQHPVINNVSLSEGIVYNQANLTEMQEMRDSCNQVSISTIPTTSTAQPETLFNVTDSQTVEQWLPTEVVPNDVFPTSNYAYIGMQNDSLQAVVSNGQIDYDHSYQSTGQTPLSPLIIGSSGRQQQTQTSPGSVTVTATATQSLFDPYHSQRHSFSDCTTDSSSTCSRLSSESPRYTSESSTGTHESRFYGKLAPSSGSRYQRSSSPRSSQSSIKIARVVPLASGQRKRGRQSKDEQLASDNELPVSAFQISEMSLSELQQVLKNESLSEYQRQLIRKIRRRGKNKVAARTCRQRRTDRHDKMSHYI

[9] = fluconazole-exposed Candida albicans growth modulators – fluorescence, retest, confirmation (AID 2467); type: functional, cell-based
[10] = NIH-3T3 fibroblast cytotoxicity, dose response, cytotoxicity control, cell-based, fluorescence, Alamar Blue, secondary assay (AID 2327); type: functional;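 note: NIH-3T3 mouse fibroblasts cultured with fluconazole at 8 µg/mL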
[11] = cells; conditions: HEK293
[12] = OVCAR8 cell viability loss – plate reader, dry powder samples, PAX8 project, dose response (AID 743197); type: functional, cell-based; conditions: OVCAR-8
[13] = molecular target: Paired box protein Pax-8 (Homo sapiens, UniProt Q06710); experiment: PAX8 transcriptional activity inhibition in RMG-I – RMG-I cells, luciferase, cherry-pick, dose response (AID 687027); type: functional, cell-based;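 note: luciferase reporter driven by Pax8 target thyroperoxidase promoter measured by SteadyGlo luminescence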
[14] = A2780 cell killing – plate reader, dry powder samples, cytotoxicity control, dose response (AID 743046); type: functional, cell-based
[15] = OVCAR-3 cell viability loss – plate reader, dry powder samples, PAX8 inhibitor project, dose response (AID 743044); type: functional, cell-based
[16] = viability loss in MITF-independent A375 cells – cell-based, CellTiter-Glo luminescence, dry powder, set 2, counter-screen for MITF inhibitor project, dose response (AID 624489); type: functional; conditions: A-375;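 note: actives are compounds lowering A375 viability meaning general cytotoxicity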
[17] = cytotoxicity in MITF-independent A375 cells – cell-based, CellTiter-Glo luminescence, dry powder, set 4, counter-screen for MITF inhibitor project, dose response (AID 624364); type: functional; conditions: A-375;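 note: A375 melanoma cells are MITF independent so this is a counter screen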
[18] = test system: P388/ADR; experiment: cells; type: functional; conditions: Mus musculus
[19] = test system: P388; experiment: cells; type: functional; conditions: Mus musculus
[20] = molecular target: FAD-linked sulfhydryl oxidase ALR (Homo sapiens, UniProt P55789); experiment: ALR-catalysed DTT oxidation blockers – biochemical, H2O2 detection, luminescence, cherry-pick, dose response (AID 493248)
FAD-linked sulfhydryl oxidase ALR, sequence (P55789 whole entry): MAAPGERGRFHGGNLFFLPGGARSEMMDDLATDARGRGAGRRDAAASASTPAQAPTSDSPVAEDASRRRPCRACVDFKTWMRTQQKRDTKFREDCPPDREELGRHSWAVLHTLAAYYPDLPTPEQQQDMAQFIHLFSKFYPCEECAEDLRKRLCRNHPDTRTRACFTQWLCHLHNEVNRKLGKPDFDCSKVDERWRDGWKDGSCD

[21] = molecular target: Endoplasmic reticulum aminopeptidase 1 (Homo sapiens, UniProt Q9NZ08); experiment: inhibition of human ERAP1 enzyme activity – biochemical, cherry-pick, set 2, plate reader, dose response (AID 743314)
Endoplasmic reticulum aminopeptidase 1, sequence (Q9NZ08 whole entry): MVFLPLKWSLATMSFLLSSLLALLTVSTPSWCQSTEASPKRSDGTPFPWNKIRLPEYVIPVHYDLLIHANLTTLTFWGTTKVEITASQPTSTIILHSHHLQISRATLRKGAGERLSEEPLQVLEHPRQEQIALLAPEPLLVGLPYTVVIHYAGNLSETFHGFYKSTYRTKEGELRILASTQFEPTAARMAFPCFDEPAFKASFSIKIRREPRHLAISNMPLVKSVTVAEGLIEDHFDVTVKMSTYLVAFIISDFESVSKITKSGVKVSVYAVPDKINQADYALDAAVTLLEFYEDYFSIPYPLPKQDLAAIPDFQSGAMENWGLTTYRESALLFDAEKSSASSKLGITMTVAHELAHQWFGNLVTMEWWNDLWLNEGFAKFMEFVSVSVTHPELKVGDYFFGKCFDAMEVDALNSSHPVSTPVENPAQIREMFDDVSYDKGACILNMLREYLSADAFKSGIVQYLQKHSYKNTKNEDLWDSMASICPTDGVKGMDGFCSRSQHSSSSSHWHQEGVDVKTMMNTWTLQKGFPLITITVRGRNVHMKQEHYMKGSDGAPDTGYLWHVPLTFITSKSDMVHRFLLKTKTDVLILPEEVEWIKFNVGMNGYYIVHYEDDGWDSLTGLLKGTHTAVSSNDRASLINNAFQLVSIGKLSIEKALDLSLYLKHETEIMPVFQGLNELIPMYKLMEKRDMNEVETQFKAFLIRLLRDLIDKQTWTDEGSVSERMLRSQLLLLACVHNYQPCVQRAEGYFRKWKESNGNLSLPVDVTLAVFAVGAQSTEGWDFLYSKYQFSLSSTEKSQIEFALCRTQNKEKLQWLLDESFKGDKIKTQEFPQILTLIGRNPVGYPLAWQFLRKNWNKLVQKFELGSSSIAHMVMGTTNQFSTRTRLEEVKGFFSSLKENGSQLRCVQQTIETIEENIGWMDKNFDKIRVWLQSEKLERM

[22] = test system: SN12K1; experiment: cells; type: functional; conditions: Homo sapiens
[23] = molecular target: T3, Cytochrome P450 1A2 (Homo sapiens, UniProt P05177);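 note: PubChem cytochrome P450 panel assay, CYP1A2 panel member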
T3 sequence (P05177 whole entry): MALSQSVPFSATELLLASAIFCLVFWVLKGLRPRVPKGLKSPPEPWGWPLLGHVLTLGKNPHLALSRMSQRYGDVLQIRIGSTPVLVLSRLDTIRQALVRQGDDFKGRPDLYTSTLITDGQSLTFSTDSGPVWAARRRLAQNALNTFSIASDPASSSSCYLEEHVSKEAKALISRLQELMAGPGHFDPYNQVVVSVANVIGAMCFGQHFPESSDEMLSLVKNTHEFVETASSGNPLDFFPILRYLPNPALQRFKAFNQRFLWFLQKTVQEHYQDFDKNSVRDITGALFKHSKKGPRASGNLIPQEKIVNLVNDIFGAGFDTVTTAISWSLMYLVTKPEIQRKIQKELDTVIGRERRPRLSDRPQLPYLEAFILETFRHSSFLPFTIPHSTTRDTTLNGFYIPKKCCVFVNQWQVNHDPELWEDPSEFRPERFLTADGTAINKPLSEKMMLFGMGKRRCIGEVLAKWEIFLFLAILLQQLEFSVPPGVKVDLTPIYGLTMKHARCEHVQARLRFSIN

With `COc1ccccc1NC(=O)Cn1cc(C(=O)C2CC2)c2ccccc21` the AC50 [1] was 29 µM (active), the AC50 [2] was 6.08 µM (active) and the AC50 [3] was 4.76 µM (active).

With `COc1ccc(C(=O)C2=C(O)C(=O)N(c3nc(C)c(C)s3)C2c2ccco2)cc1` (stereo not given) the Ki [4] was > 66.7 µM (inactive), the EC50 [5] was > 79.4 µM (inactive) and the EC50 [6] was > 79.4 µM (not active). The EC50 [7] was 37.9 µM (not active).

For `CCc1cccc(C)c1N=C(S)NCc1ccc2c(c1)cc(C)n2C`, the IC50 [8] was > 100 µM (inactive), the EC50 [9] was > 38 µM (not active) and the EC50 [10] was 51.5 µM (active). For the same molecule, the AC50 [11] was > 52 µM (inactive).

For `C[C@@H]1CCCCO[C@H](CN(C)C(=O)Cc2ccccc2)[C@@H](C)CN([C@@H](C)CO)C(=O)c2cc(NC(=O)Nc3ccc(C(F)(F)F)cc3)ccc2O1`, the AC50 [12] was 58.8 µM (active), the AC50 [13] was 2.85 µM (active) and the AC50 [14] was 54.7 µM (active). For the same molecule, the AC50 [15] was 54.5 µM (active).

For `NC1=C(c2ccc(OC(F)(F)F)cc2)C(=O)c2ccccc2C1=O`, the AC50 [16] was > 70 µM (inactive) and the AC50 [17] was > 70 µM (inactive).

In the case of `CC(=O)N(C)C1=C(N2CCCCC2)C(=O)c2ccccc2C1=O`, the AC50 [16] was 14.8 µM (active) and the AC50 [17] was 27.1 µM (active).

In the case of `COc1cc2ccc(=O)oc2cc1O` [SCOPOLETIN], the GI50 [18] was 12.5 µM (inactive), the GI50 [19] was 5.55 µM (inactive) and the AC50 [20] was 4.4 µM (active). The AC50 [21] was 5.79 µM (active), the GI50 [22] was 19.4 µM (inactive) and the AC50 [23] was 5.01 µM (inconclusive).
